What was measured:
[1] = Phase 1b study in NASH patients: pharmacokinetics; format: in vivo, human; conditions: for CL/F / AUC(0-t) / Cmax / Tmax / half-life: NASH patients, mean (standard deviation); for AUC(0-t) / Cmax / Tmax / half-life: both sexes, human, plasma
Source text: A total of 63 patients completed the study with 21 patients per dose group (completion of MRI-PDFF measurement). […] Subjects provided written informed consent to participate in the study • 2. Males or females subjects 18 years or older, at the time of signing informed consent • 3. BMI 20-45 kg/m^2 • 4. […] Value of Fibroscan® ≥7 kPa • OR • b. MRE≥2.75 kPa • *Clinical diagnosis of NASH was defined in this clinical trial as the existence of one or more of the following risk factors for NASH, namely: • a. Type 2 diabetes or elevated fasting blood sugar • b. Abdominal obesity • c. Elevated lipid levels, especially elevated levels of serum triglycerides • d. Hypertension, or • e. Low levels of HDL cholesterol • 5. For serum transaminases, ALT concentration for all patients at the time of screening was >1 and <5 times upper limit of normal (ULN) of the central lab in the absence of another cause of liver disease. If a patient had lab records in the past 6 months, ALT concentrations were <20 U/L female and <30 U/L male. AST concentration for all patients at the time of screening was <5x ULN • 6. […] Platelet counts ≥120,000/mm^3 • 8. Female subjects were eligible for the study if they met the following criteria: • Are not pregnant or nursing • Women of child-bearing potential (defined as females who are not surgically sterile or who are not over the age of 52 and amenorrheic for at least 12 months) must utilize appropriate birth control throughout the study duration. Acceptable methods that may be used are abstinence, birth control pills (“The Pill”) or patch, diaphragm, IUD (coil), vaginal ring, condom, surgical sterilization or progestin implant or injection, or sexual activity limited to a sterile (e.g., vasectomized) male partner • 9. Male participants agreed to consistently and correctly use a condom in combination with one of the above methods of birth control from enrolment to 30 days after the last dose of study medication • 10. Participants were able to comply with dosing and able to complete the study schedule of assessments
The pharmacokinetics of administered 25HC3S was determined.

[2] = system: patients with Non-Alcoholic Steatohepatitis (NASH); assay: Phase 1b study in NASH patients: safety; format: in vivo, human; conditions: all three doses (50 mg, 150 mg, 600 mg daily), 4 weeks oral
Source text: A total of 63 patients completed the study with 21 patients per dose group (completion of MRI-PDFF measurement). […] Subjects provided written informed consent to participate in the study • 2. Males or females subjects 18 years or older, at the time of signing informed consent • 3. BMI 20-45 kg/m^2 • 4. […] Value of Fibroscan® ≥7 kPa • OR • b. MRE≥2.75 kPa • *Clinical diagnosis of NASH was defined in this clinical trial as the existence of one or more of the following risk factors for NASH, namely: • a. Type 2 diabetes or elevated fasting blood sugar • b. Abdominal obesity • c. Elevated lipid levels, especially elevated levels of serum triglycerides • d. Hypertension, or • e. Low levels of HDL cholesterol • 5. For serum transaminases, ALT concentration for all patients at the time of screening was >1 and <5 times upper limit of normal (ULN) of the central lab in the absence of another cause of liver disease. If a patient had lab records in the past 6 months, ALT concentrations were <20 U/L female and <30 U/L male. AST concentration for all patients at the time of screening was <5x ULN • 6. […] Platelet counts ≥120,000/mm^3 • 8. […]

[3] = Single oral dose safety and pharmacokinetic study in NASH and healthy subjects; format: in vivo, human; conditions: for Cmax: read-out: Cmax
Protocol: The present Example was a randomized, dose ranging, single dose safety and pharmacokinetic study of 25HC3S administered to subjects with NASH and control healthy subjects. […] For each cohort, 10 subjects with NASH were enrolled which were further classified into cirrhotic and non-cirrhotic. Each subject received only one dose of study treatment. The second cohort was dosed after a review of safety and tolerability data from Cohort 1.

[4] = Metabolite profiling of plasma, urine and feces after intravenous dose; format: in vivo, male Sprague Dawley rats; conditions: intravenous 10 mg/kg
Protocol: Nine male Sprague Dawley rats (Group 1) were designated for the pharmacokinetic phase, 3 male Sprague Dawley rats (Group 2) for the excretion mass balance phase, and 7 male Sprague Dawley rats (Group 3) and 9 male Long Evans rats (Group 4) for the tissue distribution phase. All animals received a single intravenous dose of [^14C]-25HC3S at 10 mg/kg and a target radioactivity of 225 μCi/kg. Blood samples were collected from all Group 1 animals at approximately 0.083, 0.25, 0.5, 1, 2, 4, 8, 12, 24, 48, and 72 hours post-dose. Urine and feces were collected from all Group 2 animals periodically through 168 hours post-dose. […] Following blood collection, animals were euthanized by CO2 inhalation and carcasses frozen in a dry ice/hexane bath for processing by quantitative whole body autoradiography. Whole blood, plasma, urine, feces, cage rinse, and cage wash were analyzed for total radioactivity by liquid scintillation counting.

NASH patients = conditions: 50 mg vs 200 mg oral; cited from earlier work

C[C@H](CCCC(C)(C)O)[C@H]1CC[C@H]2[C@@H]3CC=C4C[C@@H](OS(=O)(=O)O)CC[C@]4(C)[C@H]3CC[C@]12C [25HC3S, 5-cholesten-3,25-diol, 3-sulfate]
CL/F ([1]; 50 mg QD oral): 150.6 (51.5) L/h
CL/F ([1]; 150 mg QD oral): 176.6 (80.5) L/h
CL/F ([1]; 300 mg BID oral): 166.2 (60.4) L/h
AUC(0-t) ([1]; 50 mg QD oral): 340 ng·h/mL
Cmax ([1]; 50 mg QD oral): 79.1 ng/mL
Tmax ([1]; 50 mg QD oral): 2.4 h
half-life ([1]; 50 mg QD oral): 162 min
AUC(0-t) ([1]; 150 mg QD oral): 1040 ng·h/mL
Cmax ([1]; 150 mg QD oral): 274 ng/mL
Tmax ([1]; 150 mg QD oral): 2 h
half-life ([1]; 150 mg QD oral): 162 min
AUC(0-t) ([1]; 300 mg BID oral): 2140 ng·h/mL
Cmax ([1]; 300 mg BID oral): 430 ng/mL
Tmax ([1]; 300 mg BID oral): 2.3 h
half-life ([1]; 300 mg BID oral): 144 min
PK parameters after repeat dosing ([1]; repeat vs single dose): comparable to those after a single dose and were dose dependent
tolerability, drug related serious adverse events [2]: well tolerated at all three doses with no drug related serious adverse events observed
difference in pharmacokinetics between healthy subjects and NASH patients ([3]; 50 mg and 200 mg single oral dose): no clear difference in pharmacokinetics
CL/F ([3]; 200 mg single oral dose, Healthy, Mean): 171.25 ± 28.60 L/h
time post-dose up to which plasma levels were detectable ([3]; Cohort 1 (50 mg) healthy subjects): up to 12 hours
AUC0-inf, higher in NASH than healthy subjects ([3]; Cohort 2 (200 mg)): approximately 20%
geometric mean AUC0-12 and AUC0-last, higher in NASH than healthy subjects ([3]; Cohort 2 (200 mg)): approximately 30%
time post-dose up to which plasma levels were detectable ([3]; Cohort 2 (200 mg) healthy subjects): up to 16 hours
increase of geometric mean Cmax in NASH over healthy subjects ([3]; Cohorts 1 and 2): 18-24%
exposure (AUC parameters), potential increasing trends in NASH subjects ([3]; NASH vs healthy): up to 31%
half-life ([3]; human, plasma, oral, across both healthy and NASH subject groups, 50 mg and 200 mg, read-out: T1/2, range of mean values): 100 to 151 min
Cmax ([3]; human, plasma, 50 mg single oral dose, Healthy, Mean): 94 ± 27.3 ng/mL
Cmax ([3]; human, plasma, 200 mg single oral dose, Healthy, Mean): 260 ± 54.8 ng/mL
% of dose in feces ([4]; pools 0 to 48 hours postdose): 2 % of dose
share of the exposure (AUC) to 25HC3S related radioactivity in plasma ([4]; up to 1 hour postdose): approximately 54%
dose dependence of biological responses (NASH patients): no dose-dependent changes of biological responses
